Assay results as given in ChEMBL document CHEMBL1141723, “Specific targeting of metzincin family members with small-molecule inhibitors: progress toward a multifarious challenge” (Bioorg Med Chem, 2008).
Values belong to the molecule of their own block, whether it stands above or below them. Active and inactive are the calls of the source. No cut-off for these calls is given here.

What was measured:
[1] = biological target: Bone morphogenetic protein 1 (Homo sapiens, UniProt P13497); experiment: Inhibition of BMP1
Collagenase 3 = Collagenase 3 (Homo sapiens, UniProt P45452); experiment: Inhibition of MMP13
[2] = biological target: T1, Matrix metalloproteinase-9 (Homo sapiens, UniProt P14780); experiment: Inhibition of MMP9
[3] = biological target: T2, Matrix metalloproteinase-14 (Homo sapiens, UniProt P50281); experiment: Inhibition of MMP14
Interstitial collagenase = biological target: T3, Interstitial collagenase (Homo sapiens, UniProt P03956)
T3 sequence (P03956 whole entry): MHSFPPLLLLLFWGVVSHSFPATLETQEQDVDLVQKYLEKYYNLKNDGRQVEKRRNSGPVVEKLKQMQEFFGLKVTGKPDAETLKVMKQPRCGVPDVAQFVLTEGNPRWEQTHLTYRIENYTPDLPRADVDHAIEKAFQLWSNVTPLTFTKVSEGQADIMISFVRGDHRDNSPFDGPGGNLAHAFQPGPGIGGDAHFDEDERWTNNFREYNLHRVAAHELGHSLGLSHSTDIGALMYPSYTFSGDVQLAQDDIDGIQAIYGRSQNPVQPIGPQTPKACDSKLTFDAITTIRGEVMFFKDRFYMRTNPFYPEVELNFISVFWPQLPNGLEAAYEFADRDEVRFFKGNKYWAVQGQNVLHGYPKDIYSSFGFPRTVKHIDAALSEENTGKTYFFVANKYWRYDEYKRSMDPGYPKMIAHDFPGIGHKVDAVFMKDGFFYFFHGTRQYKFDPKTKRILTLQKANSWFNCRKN

Stromelysin-1 [4] = biological target: T4, Stromelysin-1 (Homo sapiens, UniProt P08254)
Target sequence in this assay (P08254 whole entry): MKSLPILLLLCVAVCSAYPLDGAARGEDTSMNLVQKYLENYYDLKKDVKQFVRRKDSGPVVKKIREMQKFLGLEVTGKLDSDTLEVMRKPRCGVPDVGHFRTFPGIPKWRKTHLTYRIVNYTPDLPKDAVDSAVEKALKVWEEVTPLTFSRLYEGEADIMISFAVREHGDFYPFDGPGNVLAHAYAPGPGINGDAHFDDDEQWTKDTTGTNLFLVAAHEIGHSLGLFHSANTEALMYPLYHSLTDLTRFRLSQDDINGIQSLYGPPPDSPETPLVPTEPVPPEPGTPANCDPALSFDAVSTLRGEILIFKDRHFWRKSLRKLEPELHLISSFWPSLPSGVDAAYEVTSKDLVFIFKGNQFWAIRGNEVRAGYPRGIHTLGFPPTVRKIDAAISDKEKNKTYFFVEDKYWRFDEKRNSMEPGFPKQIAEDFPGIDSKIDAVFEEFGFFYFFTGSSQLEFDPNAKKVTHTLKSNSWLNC

[5] = Inhibition of bovine aggrecanase; parameters: species or system Bos taurus
[6] = Selectivity for bovine aggrecanase over MMP1
[7] = Selectivity for bovine aggrecanase over MMP2
Neutrophil collagenase [8] = biological target: T5, Neutrophil collagenase (Homo sapiens, UniProt P22894); experiment: Inhibition of MMP8
Target sequence in this assay (P22894 whole entry): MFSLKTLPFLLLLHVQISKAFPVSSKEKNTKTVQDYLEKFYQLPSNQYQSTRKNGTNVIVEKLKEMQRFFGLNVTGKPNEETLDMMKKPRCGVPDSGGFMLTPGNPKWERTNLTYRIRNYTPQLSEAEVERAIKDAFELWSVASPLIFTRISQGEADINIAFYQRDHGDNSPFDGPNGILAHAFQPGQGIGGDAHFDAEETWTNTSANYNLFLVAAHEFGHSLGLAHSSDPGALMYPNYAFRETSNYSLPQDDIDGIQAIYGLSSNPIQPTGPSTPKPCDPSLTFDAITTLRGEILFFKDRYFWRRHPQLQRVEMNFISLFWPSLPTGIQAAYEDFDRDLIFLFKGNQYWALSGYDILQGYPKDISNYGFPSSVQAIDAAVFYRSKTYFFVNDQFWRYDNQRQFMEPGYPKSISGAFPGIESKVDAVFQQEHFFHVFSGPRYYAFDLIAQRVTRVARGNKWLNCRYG

[9] = biological target: T6, Macrophage metalloelastase (Homo sapiens, UniProt P39900); experiment: Inhibition of MMP12
[10] = Selectivity for pig TACE over MMP1
[11] = Selectivity for pig TACE over MMP2
[12] = Selectivity for pig TACE over MMP3
[13] = Selectivity for pig TACE over MMP7
[14] = Selectivity for pig TACE over MMP8
[15] = Selectivity for pig TACE over MMP9
[16] = biological target: T7, Matrix metalloproteinase-16 (Homo sapiens, UniProt P51512); experiment: Inhibition of MMP16
Stromelysin-2 [17] = biological target: T8, Stromelysin-2 (Homo sapiens, UniProt P09238); experiment: Inhibition of MMP10
Target sequence in this assay (P09238 whole entry): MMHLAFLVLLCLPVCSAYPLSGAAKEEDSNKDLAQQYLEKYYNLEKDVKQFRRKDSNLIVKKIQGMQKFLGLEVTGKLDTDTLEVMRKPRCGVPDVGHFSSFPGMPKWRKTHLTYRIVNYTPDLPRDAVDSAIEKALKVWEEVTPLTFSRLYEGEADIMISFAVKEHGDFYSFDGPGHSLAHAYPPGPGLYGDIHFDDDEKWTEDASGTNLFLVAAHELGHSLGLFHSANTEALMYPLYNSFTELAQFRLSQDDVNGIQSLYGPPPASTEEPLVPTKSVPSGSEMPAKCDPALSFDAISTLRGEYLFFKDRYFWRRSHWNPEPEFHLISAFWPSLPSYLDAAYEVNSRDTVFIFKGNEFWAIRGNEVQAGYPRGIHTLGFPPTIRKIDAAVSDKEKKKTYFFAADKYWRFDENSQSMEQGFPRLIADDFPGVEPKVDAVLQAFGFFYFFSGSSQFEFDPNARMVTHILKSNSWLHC

[18] = biological target: T9, 72 kDa type IV collagenase (Homo sapiens, UniProt P08253)
Target sequence in this assay (P08253 whole entry): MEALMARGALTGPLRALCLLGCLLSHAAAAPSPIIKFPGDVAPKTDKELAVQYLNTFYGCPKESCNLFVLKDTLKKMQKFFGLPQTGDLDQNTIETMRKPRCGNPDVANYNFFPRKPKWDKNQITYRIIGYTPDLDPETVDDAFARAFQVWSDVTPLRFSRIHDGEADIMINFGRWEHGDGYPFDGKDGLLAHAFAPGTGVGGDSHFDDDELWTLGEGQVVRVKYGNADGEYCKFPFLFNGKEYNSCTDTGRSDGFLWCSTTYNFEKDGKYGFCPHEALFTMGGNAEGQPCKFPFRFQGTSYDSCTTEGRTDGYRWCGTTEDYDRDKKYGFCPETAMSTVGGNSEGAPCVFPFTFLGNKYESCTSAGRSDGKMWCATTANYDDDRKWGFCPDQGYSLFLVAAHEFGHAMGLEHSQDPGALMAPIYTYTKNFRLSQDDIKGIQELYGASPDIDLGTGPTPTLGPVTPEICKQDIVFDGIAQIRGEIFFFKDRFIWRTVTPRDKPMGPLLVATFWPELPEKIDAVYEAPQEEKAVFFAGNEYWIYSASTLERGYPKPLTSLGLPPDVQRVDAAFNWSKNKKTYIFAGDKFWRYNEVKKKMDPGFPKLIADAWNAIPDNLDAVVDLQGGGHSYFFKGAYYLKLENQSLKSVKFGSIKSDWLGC

[19] = biological target: Matrix metalloproteinase-15 (Homo sapiens, UniProt P51511)
[20] = biological target: T10, Interstitial collagenase (Homo sapiens) (UniProt P03956); experiment: Inhibition of MMP1 up to 60 uM
T10 sequence (whole entry): T3 sequence (P03956 whole entry)

[21] = biological target: T11, Matrilysin (Homo sapiens) (UniProt P09237); experiment: Inhibition of MMP7 up to 60 uM
T11 sequence (whole entry): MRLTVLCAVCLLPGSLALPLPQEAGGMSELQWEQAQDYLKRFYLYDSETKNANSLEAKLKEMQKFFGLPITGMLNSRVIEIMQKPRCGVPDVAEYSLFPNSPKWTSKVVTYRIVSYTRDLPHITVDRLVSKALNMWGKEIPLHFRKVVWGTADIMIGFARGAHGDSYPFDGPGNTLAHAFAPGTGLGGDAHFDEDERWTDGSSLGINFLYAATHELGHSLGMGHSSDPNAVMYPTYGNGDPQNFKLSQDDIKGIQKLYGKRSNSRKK

Stromelysin-2 [22] = biological target: T8, Stromelysin-2; experiment: Inhibition of MMP10 up to 100 uM
[23] = biological target: T10, Interstitial collagenase (Homo sapiens); experiment: Inhibition of MMP1 at 100 uM
[24] = biological target: T9, 72 kDa type IV collagenase; experiment: Inhibition of MMP2 up to 100 uM
Stromelysin-1 [25] = biological target: T4, Stromelysin-1; experiment: Inhibition of MMP3 up to 100 uM
Target sequence in this assay (P08254 100-477 limits assumed): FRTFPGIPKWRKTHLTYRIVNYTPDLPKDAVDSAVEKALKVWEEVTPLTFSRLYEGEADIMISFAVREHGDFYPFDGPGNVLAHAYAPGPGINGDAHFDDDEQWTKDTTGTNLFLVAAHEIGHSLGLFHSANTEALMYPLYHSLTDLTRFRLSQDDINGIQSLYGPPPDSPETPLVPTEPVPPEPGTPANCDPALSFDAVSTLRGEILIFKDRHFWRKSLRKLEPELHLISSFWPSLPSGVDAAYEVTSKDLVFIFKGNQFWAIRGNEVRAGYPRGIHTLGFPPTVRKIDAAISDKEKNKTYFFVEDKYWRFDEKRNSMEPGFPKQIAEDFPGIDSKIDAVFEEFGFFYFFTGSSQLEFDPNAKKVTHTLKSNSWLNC

[26] = biological target: T11, Matrilysin (Homo sapiens); experiment: Inhibition of MMP7 up to 100 uM
Neutrophil collagenase [27] = biological target: T5, Neutrophil collagenase; experiment: Inhibition of MMP8 up to 100 uM
[28] = biological target: T1, Matrix metalloproteinase-9; experiment: Inhibition of MMP9 up to 100 uM
[29] = biological target: T6, Macrophage metalloelastase; experiment: Inhibition of MMP12 up to 100 uM
Target sequence in this assay (P39900 106-470 limits assumed): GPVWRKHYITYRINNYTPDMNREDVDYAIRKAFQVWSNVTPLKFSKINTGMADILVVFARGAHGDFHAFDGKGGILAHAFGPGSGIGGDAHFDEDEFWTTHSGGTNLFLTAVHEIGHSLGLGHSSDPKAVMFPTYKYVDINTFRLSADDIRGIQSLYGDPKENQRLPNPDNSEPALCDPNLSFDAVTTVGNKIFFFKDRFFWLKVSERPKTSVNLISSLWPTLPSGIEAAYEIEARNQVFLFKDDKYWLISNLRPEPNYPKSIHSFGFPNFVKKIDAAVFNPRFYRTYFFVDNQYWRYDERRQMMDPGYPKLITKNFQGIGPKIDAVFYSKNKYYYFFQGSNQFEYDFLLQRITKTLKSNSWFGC

[30] = biological target: T2, Matrix metalloproteinase-14; experiment: Inhibition of MMP14 up to 100 uM
[31] = biological target: T7, Matrix metalloproteinase-16; experiment: Inhibition of MMP16 up to 100 uM
[32] = biological target: A disintegrin and metalloproteinase with thrombospondin motifs 1 (Homo sapiens, UniProt Q9UHI8); experiment: Inhibition of ADAMTS1
[33] = biological target: A disintegrin and metalloproteinase with thrombospondin motifs 5 (Homo sapiens, UniProt Q9UNA0); experiment: Inhibition of ADAMTS5
[34] = biological target: T12, Disintegrin and metalloproteinase domain-containing protein 10 (Homo sapiens, UniProt O14672); experiment: Inhibition of ADAM10
T12 sequence (O14672 whole entry): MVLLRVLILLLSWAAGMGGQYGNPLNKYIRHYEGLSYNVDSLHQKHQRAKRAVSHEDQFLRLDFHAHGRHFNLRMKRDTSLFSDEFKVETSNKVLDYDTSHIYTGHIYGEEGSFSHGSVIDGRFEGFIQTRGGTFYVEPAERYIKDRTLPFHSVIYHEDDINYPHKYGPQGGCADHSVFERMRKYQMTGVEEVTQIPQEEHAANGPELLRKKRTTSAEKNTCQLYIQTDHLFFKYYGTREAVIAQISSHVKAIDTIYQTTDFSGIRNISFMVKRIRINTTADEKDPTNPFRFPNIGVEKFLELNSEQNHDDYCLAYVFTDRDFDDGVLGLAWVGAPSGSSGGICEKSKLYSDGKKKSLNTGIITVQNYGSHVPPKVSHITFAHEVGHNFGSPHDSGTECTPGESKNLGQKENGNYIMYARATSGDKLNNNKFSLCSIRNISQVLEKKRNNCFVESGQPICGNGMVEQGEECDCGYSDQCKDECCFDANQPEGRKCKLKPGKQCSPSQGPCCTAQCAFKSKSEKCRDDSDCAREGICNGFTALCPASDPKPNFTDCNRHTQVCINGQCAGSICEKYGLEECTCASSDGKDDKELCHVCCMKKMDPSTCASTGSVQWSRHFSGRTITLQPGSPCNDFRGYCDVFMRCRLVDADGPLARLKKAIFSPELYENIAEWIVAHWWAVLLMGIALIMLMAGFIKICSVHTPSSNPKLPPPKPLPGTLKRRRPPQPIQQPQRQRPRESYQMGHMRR

[35] = biological target: Disintegrin and metalloproteinase domain-containing protein 17 (Sus scrofa, UniProt O77636); experiment: Inhibition of pig TACE

T1 sequence (P14780 whole entry): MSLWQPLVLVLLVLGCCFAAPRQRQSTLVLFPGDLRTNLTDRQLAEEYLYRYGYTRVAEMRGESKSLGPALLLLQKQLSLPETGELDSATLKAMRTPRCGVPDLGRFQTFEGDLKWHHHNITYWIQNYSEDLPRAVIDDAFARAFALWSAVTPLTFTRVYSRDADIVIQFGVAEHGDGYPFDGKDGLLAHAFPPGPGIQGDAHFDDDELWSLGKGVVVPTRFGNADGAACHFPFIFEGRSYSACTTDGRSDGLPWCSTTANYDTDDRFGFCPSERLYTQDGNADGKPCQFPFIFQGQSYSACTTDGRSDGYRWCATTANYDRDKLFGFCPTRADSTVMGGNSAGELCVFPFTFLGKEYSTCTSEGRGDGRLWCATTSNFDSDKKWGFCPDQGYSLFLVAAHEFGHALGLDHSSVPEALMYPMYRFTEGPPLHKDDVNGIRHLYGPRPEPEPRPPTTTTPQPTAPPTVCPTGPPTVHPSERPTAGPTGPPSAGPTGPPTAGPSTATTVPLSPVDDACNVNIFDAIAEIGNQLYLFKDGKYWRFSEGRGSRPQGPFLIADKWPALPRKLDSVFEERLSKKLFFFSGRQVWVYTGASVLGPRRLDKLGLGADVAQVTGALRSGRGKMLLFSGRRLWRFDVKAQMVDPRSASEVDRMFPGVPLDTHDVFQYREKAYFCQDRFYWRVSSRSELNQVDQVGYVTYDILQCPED
Chain of Matrix metalloproteinase-15 (P51511 whole entry): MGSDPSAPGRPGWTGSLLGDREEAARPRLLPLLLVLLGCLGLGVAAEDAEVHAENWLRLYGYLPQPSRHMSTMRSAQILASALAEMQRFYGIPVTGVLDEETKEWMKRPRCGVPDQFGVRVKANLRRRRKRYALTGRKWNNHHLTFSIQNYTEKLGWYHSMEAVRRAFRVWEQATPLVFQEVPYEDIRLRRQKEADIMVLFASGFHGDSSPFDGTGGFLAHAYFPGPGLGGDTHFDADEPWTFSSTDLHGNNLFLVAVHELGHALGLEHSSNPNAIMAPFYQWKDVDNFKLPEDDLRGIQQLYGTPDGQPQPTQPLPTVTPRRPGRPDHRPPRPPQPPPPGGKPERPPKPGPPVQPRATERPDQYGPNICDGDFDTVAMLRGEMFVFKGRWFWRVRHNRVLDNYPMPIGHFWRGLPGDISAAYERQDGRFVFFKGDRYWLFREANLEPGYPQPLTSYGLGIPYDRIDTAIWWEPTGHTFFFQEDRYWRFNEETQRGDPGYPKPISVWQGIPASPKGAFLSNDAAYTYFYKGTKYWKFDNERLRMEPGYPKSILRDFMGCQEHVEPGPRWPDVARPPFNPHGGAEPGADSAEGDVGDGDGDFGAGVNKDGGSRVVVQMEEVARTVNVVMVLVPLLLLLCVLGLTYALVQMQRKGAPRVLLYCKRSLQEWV
T7 sequence (P51512 whole entry): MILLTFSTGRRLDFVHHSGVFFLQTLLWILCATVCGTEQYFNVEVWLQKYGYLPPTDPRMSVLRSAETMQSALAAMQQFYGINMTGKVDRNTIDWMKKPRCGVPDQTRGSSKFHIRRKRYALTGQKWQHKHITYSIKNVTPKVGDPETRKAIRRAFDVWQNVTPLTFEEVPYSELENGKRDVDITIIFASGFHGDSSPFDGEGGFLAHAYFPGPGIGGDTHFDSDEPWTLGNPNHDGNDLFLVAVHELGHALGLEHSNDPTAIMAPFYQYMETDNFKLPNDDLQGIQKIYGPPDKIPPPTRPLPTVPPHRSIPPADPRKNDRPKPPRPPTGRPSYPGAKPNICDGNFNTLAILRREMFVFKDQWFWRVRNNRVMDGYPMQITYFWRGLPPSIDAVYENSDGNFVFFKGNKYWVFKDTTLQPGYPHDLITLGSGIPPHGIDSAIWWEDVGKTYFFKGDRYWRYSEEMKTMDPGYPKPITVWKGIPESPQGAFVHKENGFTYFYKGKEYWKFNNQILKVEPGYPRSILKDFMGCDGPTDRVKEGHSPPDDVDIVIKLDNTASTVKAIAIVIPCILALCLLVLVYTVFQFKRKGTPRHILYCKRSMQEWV

Ki [1]: 0.011 µM
Ki (Collagenase 3): 91 µM
Ki [2]: > 100 µM
Ki [3]: > 100 µM
Ki (Interstitial collagenase): 0.001 µM
Ki (Stromelysin-1 [4]): > 100 µM
SMILES: CS(=O)(=O)NCc1noc([C@H](CCCC2CCCCC2)CC(=O)NO)n1

IC50 [5]: 0.003 µM
fold change (FC) [6]: > 100
fold change (FC) [7]: > 100
SMILES: CS(=O)(=O)N1CCC([C@H](C(=O)NO)[C@@H](Cc2cccc(O)c2)C(=O)N[C@H]2c3ccccc3C[C@H]2O)CC1

Ki (Neutrophil collagenase [8]): 0.2 µM
Ki [2]: > 2 µM
Ki [3]: > 2 µM
Ki [9]: > 2 µM
fold change (FC) [10]: > 100
fold change (FC) [11]: > 100
fold change (FC) [12]: > 100
fold change (FC) [13]: > 100
fold change (FC) [14]: 45
fold change (FC) [15]: > 100
Ki [16]: > 2 µM
Ki (Stromelysin-2 [17]): > 2 µM
Ki (Interstitial collagenase): > 2 µM
Ki [18]: > 2 µM
Ki (Stromelysin-1 [4]): > 2 µM
Ki [19]: > 2 µM
SMILES: O=C1NCCCC[C@@H](C(=O)NCC(=O)N2CCOCC2)NC(=O)[C@H](Cc2ccc(-c3ccccc3C(F)(F)F)cc2)[C@@H](C(=O)NO)CCCO1

Ki [2]: 0.1 µM
Ki [3]: 0.21 µM
Activity [20]: inactive
Activity [21]: inactive
Ki [18]: 0.046 µM
Ki (Stromelysin-1 [4]): 10 µM
SMILES: O=S(=O)(CCC(S)CS)c1ccc(Oc2ccccc2)cc1 (centres undefined)

Activity (Stromelysin-2 [22]): inactive
Activity [23]: inactive
Activity [24]: inactive
Activity (Stromelysin-1 [25]): inactive
Activity [26]: inactive
Activity (Neutrophil collagenase [27]): inactive
Activity [28]: inactive
Activity [29]: inactive
Activity [30]: inactive
Activity [31]: inactive
SMILES: O=C(NCc1cccnc1)c1cc(C(=O)NCc2cccnc2)ncn1

Ki [32]: 7.8 µM
Ki [33]: 1.9 µM
Ki [34]: > 3 µM
Ki [35]: 0.0028 µM
Ki (Neutrophil collagenase [8]): 2.05 µM
Ki (Collagenase 3): > 5 µM
Ki [2]: > 3 µM
Ki [3]: 0.163 µM
Ki (Stromelysin-2 [17]): 1.65 µM
Ki (Interstitial collagenase): > 5 µM
Ki [18]: > 3 µM
Ki (Stromelysin-1 [4]): 0.762 µM
Ki [19]: 1.7 µM
SMILES: Cc1cc(COc2ccc(C(=O)N[C@@]3(CC(=O)NO)C[C@@H](C)N[C@@H](C)C3)cc2)c2ccccc2n1
